Ends that are not written are not given here.
Experiments:
[1] = test system: human hepatocarcinoma cells (Huh7); test: fluorescence staining of lipid droplets in hepatocytes treated with the polypeptide; assay type: cell-based; details: Huh7, 400 μM oleic acid, peptide 10 μM, 20 μM; FIG. 4
[2] = test system: human hepatocarcinoma cells (Huh7); details: Huh7, 400 μM oleic acid, peptide 10 μM, 20 μM; FIGS. 3A-3B

**Q.** For “MEPGGARLRLQRTEGLGGERERQPCGDGNTETHRAPDLVQWYGRKKRRQRRRK-OH [polypeptide]”, which “generation of intracellular lipid droplets (LD)” value [1] is on record?
**A.** can inhibit

**Q.** And the “level of total cholesterol (TC) in hepatocytes” value [2]?
**A.** can reduce

**Q.** What about the “level of triglyceride (TG) in hepatocytes” value [2] of the same substance?
**A.** can reduce

— patent publication US12678480B2, “Polypeptide applied to inhibition of intracellular lipid accumulation and synthesis method thereof” (NATIONAL CHENG KUNG UNIVERSITY, priority 2021, dated 2026)
